Source: patent US20230118459A1, “ANTIVIRAL TREATMENT” (priority 2020, published 2023)
pEC50: −log10 of the molar value.

Tests used:
[1] = system: virus (not named) in Huh7 cells; assay: Cytopathic effect assay; settings: for average inhibition (%) at 14 μM / average inhibition (%) at 29 μM: virus added directly after compound; for inhibition at 14 µM: read-out: average inhibition (%) at 14 μM; for inhibition at 29 µM: read-out: average inhibition (%) at 29 μM
[2] = system: enveloped viruses, including HIV, IAV, VSV, and SARS; settings: VSV (Harada, 2005), SARS (Cinatl et al., 2003); cited from earlier work
HCV = settings: Anggakusuma et al., 2013, read-out: EC50 inhibiting binding and fusion; cited from earlier work
[3] = Huh7 cells, cytopathic effect, 7 days at 33° C.

| Compound | average inhibition (%) at 14 μM ([1]; Huh7 cells, 7 days at 33° C.) [%] | average inhibition (%) at 29 μM ([1]; Huh7 cells, 7 days at 33° C.) [%] | EC30 [1, 3] [µM] | further results |
| --- | --- | --- | --- | --- |
| N-(3-(dimethyl 4-methylenenaphthyl ammonio)propyl)myristamide chloride [ES001715] | 45.4 | 0 | 10.0 | – |
| N-(3-(dimethyl 3-methylenethiophenyl ammonio)propyl)myristamide chloride [ES001716] | 13.3 | 51.8 | 21.1 | pEC50 [1, 3]: 4.55 |
| CCCCCCCCCCCCCC(=O)NCCC[N+](C)(C)CCc1ccccc1.[Cl-] [ES001726, N-(3-(dimethylethylenephenylammonio)propyl)myristamide chloride] | 26.4 | 14.9 | 15.7 | – |
| CCCCCCCCCCCCCC(=O)NCCC[N+](C)(C)Cc1ccccc1.O=C([O-])CO [ES001652, Myramistin glycolate] | 17.0 | 36.2 | 23.8 | – |
| CCCCCCCCCCCCCC(=O)NCCC[N+](C)(C)Cc1ccc(C)cc1 [ES001706, N-(3-(dimethyl 4-methylbenzylammonio)propyl)myristamide chloride] | – | – | – | inhibition at 14 µM ([1]; Huh-7, 168 h): 23.8%; inhibition at 29 µM ([1]; Huh-7, 168 h): 34.1% |
| CCCCCCCCCCCCCC(=O)NCCC[N+](C)(C)Cc1ccc(C#N)cc1 [ES001713, N-(3-(dimethyl 4-cyanobenzylammonio)propyl)myristamide chloride] | – | – | 11.8 | pEC50 ([1]; Huh-7, 168 h): 4.78; inhibition at 14 µM ([1]; Huh-7, 168 h): 38.3%; inhibition at 29 µM ([1]; Huh-7, 168 h): 79.4% |
| CC1(C)[C@@H](O[C@H]2O[C@H](C(=O)O)[C@@H](O)[C@H](O)[C@H]2O[C@@H]2O[C@H](C(=O)O)[C@@H](O)[C@H](O)[C@H]2O)CC[C@]2(C)[C@H]3C(=O)C=C4[C@@H]5C[C@@](C)(C(=O)O)CC[C@]5(C)CC[C@@]4(C)[C@]3(C)CC[C@@H]12 [Glycyrrhizin] | – | – | – | activity against enveloped viruses [2]: weakly active |
| CCCCCCCCCCCCCC(=O)NCCC[N+](C)(C)Cc1ccccc1 [ES001071, myristamido-propyl-dimethyl-benzyl-ammonium chloride, reference compound] | – | – | 22.7 | inhibition at 14 µM ([1]; Huh-7, 168 h): 8.7%; inhibition at 29 µM ([1]; Huh-7, 168 h): 35.9% |
| CCCCCCCCCCCCCC(=O)NCCC[N+](C)(C)Cc1ccccc1.C[C@H](O)C(=O)[O-] [ES001391, Myramistin (L)-lactate] | 0 | 18.5 | 45.1 | – |
| CCCCCCCC(=O)[O-].CCCCCCCCCCCCCC(=O)NCCC[N+](C)(C)Cc1ccccc1 [ES001639, Myramistin capiylate] | 17.9 | 42.1 | 22.3 | – |
| COc1cc(/C=C/C(=O)CC(=O)/C=C/c2ccc(O)c(OC)c2)ccc1O [Curcumin] | – | – | – | pEC50 (HCV): 5.07 |
| Myramistin citrate [ES001637] | 19.5 | 36.8 | 21.1 | – |
